Active and inactive are the calls of the source. No cut-off for these calls is given here.
What was measured:
[1] = AUC (0 to t) in Sprague-Dawley rat plasma at 10 mg/kg, po; type: ADME, organism-based; design: dose 10 mg/kg
[2] = target: T1, Acetylcholinesterase (Mus musculus) (UniProt P21836); assay: Ex vivo inhibition of AChE in ICR mouse hippocampal homogenate at 2 mg/kg, ig using acetylthiocholine iodide as substrate measured after 30 to 240 mins by DTNB reagent based assay; type: functional, organism-based; settings: time 30-240 min
T1 sequence (whole entry): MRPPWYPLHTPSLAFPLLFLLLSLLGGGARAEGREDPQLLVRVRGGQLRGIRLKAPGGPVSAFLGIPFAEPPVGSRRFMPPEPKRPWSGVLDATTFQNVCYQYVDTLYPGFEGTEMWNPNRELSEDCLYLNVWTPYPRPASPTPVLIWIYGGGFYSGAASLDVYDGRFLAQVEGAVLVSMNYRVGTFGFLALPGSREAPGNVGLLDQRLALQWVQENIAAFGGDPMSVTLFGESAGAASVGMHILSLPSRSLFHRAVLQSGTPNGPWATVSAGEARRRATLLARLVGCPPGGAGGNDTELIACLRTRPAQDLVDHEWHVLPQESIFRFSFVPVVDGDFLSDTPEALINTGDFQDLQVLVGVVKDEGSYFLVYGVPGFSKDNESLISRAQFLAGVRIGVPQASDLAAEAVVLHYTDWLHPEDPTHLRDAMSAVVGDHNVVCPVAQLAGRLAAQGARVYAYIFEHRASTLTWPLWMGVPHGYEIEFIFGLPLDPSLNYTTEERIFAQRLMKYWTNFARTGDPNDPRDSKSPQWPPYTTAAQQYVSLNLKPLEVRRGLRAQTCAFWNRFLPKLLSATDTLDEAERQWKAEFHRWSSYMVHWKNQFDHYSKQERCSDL

[3] = AUC (0 to infinity) in Beagle dog at 0.25 mg/kg, po; type: ADME, organism-based, Canis lupus familiaris; design: route oral, time infinity, dose 0.25 mg/kg; settings: in vivo
[4] = Half life in Beagle dog at 0.25 mg/kg, po; type: ADME, organism-based, Canis lupus familiaris; settings: in vivo
[5] = Terminal half life in human plasma at 12 mg, po; type: ADME, cell-free; settings: read-out: beta t1/2 (converted)
[6] = Protein binding in human plasma; type: ADME, cell-free; settings: read-out: PPB (converted)
[7] = Protein binding in dog plasma; type: ADME, cell-free, Canis lupus familiaris; settings: read-out: PPB (converted)
[8] = Permeability in human Caco-2 cells at 2 to 50 uM; type: ADME, cell-based; settings: dose 2-50 µM, read-out: permeability
[9] = Genotoxicity in Salmonella typhimurium TA102 by Ames test; type: toxicity; settings: salmonella enterica subsp. enterica serovar typhimurium
Mus musculus [10] = assay: Cognitive enhancing effect in mouse model of scopolamine-induced memory impairment assessed as reduction in number of errors at 1 to 2 mg/kg, IG QD for 3 days by channel water maze test; type: functional, organism-based; settings: dose 1-2 mg/kg, time 3.0 day
Mus musculus [11] = assay: Cognitive enhancing effect in ig dosed APP/PS1 double mutant-transgenic mouse model assessed as increase in spontaneous alteration administered once daily by Y-maze test; type: functional, organism-based; settings: dose 0.25-1 mg/kg
Mus musculus [12] = assay: Improvement in learning and spatial memory in APP/PS1 double mutant-transgenic mouse model assessed as increase in number of platform crossings at 0.5 to 1 mg/kg, po for 3 months measured during probe trial by Morris water maze test; type: functional, organism-based; settings: dose 0.5-1 mg/kg
[13] = Cardiotoxicity in Beagle dog assessed as effect on PR interval at 0.1 to 1 mg/kg; type: toxicity, organism-based, Canis lupus familiaris; settings: in vivo, dose 0.1-1 mg/kg

Q: Which results are given for `COc1cc2c(cc1OC)C(=O)C(CC1(F)CCN(Cc3ccccc3F)CC1)C2` (stereo not drawn)?
A: AUC(0-t) [1]: 1.08 µg·h/mL; inhibition [2]: Active; AUC(0-inf) [3]: 0.157 µg·h/mL; half-life [4]: 23.2 h; half-life [5]: 32.1 h; fraction unbound [6]: 0.022; fraction unbound [7]: 0.035; Papp at up to 50 µM [8]: 5.74 nm/s; Activity [9]: Non-Toxic; Activity (Mus musculus [10]): Active; Activity (Mus musculus [11]): Active; Activity (Mus musculus [12]): Active; Activity [13]: Non-Toxic

— ChEMBL document CHEMBL4813953, “Kinetics-Driven Drug Design Strategy for Next-Generation Acetylcholinesterase Inhibitors to Clinical Candidate” (J Med Chem, 2021)
